PubChem BioAssay (NCI)
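Exposure lasted 48 hours, with cells grown in 96-well plates and compounds tested at five concentrations. GI50: concentration for 50% inhibition of growth. TGI: total growth inhibition.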

Columns and labels:
Experiment in all cases: NCI-60 cell line screen, 48 h
[1] = system: A549 NSCLC
[2] = system: COLO 205 colon
[3] = system: DU-145 prostate
[4] = system: LOX IMVI melanoma
[5] = system: M14 melanoma
[6] = system: MOLT-4 leukemia
[7] = system: SF-295 CNS

C=C1C[C@H](O)[C@H](Br)C(C)(C)C12CCC(C)(Cl)C(Br)C2 (stereo partly drawn)
TGI [1]: 9.12 µM
TGI [2]: 2.29 µM
TGI [3]: 15.8 µM
TGI [4]: 20.1 µM
TGI [5]: 13.3 µM
TGI [6]: 75 µM
TGI [7]: 8.13 µM

CC1(C)N=C(C2CCCN2C(=O)OCc2ccccc2)OC1=O (stereo not drawn)
TGI [1]: > 100 µM
TGI [2]: > 100 µM
TGI [3]: > 100 µM
TGI [4]: > 100 µM
TGI [5]: > 100 µM
TGI [6]: > 100 µM
TGI [7]: > 100 µM

CCOc1cc2c(c(OCC)c1O)CC[C@@H]1[C@@H]2CC[C@]2(C)[C@@H](O)CC[C@@H]12
TGI [1]: > 100 µM
TGI [2]: 55.3 µM
GI50 [3]: 3.32 µM
TGI [3]: 37.4 µM
TGI [4]: 17.1 µM
TGI [5]: > 100 µM
TGI [6]: > 100 µM
TGI [7]: 13.1 µM

COC(=O)CCC(NC(=O)OC(C)(C)C)C(=O)NC(Cc1ccc(NC(=O)CCCC(C)=O)cc1)C(=O)NC(CCC(=O)OC)C(=O)OC (stereo not drawn)
TGI [1]: > 100 µM
TGI [2]: > 100 µM
TGI [3]: > 100 µM
TGI [4]: > 100 µM
TGI [5]: > 100 µM
TGI [6]: > 100 µM
TGI [7]: > 100 µM

O=C(Nc1ccc(Cl)cc1)c1cc(S(=O)(=O)Nc2nnc3c(Cl)cc(C(F)(F)F)cn23)c(S)cc1Cl
TGI [1]: > 100 µM
TGI [2]: > 100 µM
TGI [3]: > 100 µM
TGI [5]: > 100 µM
TGI [6]: > 100 µM
TGI [7]: > 100 µM

CC1=C(C)SC(=C2Sc3nc(O)[nH]c(=O)c3S2)S1
TGI [1]: > 100 µM
TGI [2]: > 100 µM
TGI [3]: > 100 µM
TGI [4]: > 100 µM
TGI [5]: 94.1 µM
TGI [6]: > 100 µM
TGI [7]: > 100 µM

CCOc1ccc(N/C(=C(/C(Cl)=C(/Cl)NC(C)(C)C)[N+](=O)[O-])n2nnc3ccccc32)cc1
TGI [1]: > 100 µM
TGI [2]: 36.1 µM
TGI [5]: > 100 µM
TGI [6]: > 100 µM
TGI [7]: 78.8 µM

ON=C(CC(O)(C(F)(F)Cl)C(F)(F)Cl)CC(O)(C(F)(F)Cl)C(F)(F)Cl
TGI [1]: > 10 µM
TGI [2]: > 10 µM
TGI [3]: > 10 µM
TGI [4]: > 10 µM
TGI [6]: > 10 µM
TGI [7]: > 10 µM

COc1cccc(/C=C2\S/C(=N/Nc3nc(-c4ccc([N+](=O)[O-])cc4)cs3)NC2=O)c1O
TGI [1]: 39.6 µM
TGI [2]: 33 µM
TGI [3]: 68.1 µM
TGI [4]: 17.1 µM
TGI [5]: 33.2 µM
TGI [6]: > 100 µM
TGI [7]: 38.7 µM

O=c1oc2c(Cl)cc(Cl)cc2cc1C1=CSC2=NCCN12
TGI [1]: > 100 µM
TGI [2]: > 100 µM
TGI [3]: > 100 µM
TGI [4]: > 100 µM
TGI [5]: > 100 µM
TGI [6]: > 100 µM
TGI [7]: > 100 µM

O=C(c1ccc(Cl)cc1)N(C(=S)OCCOc1ccccc1)c1ccccc1
TGI [1]: 39.3 µM
TGI [2]: 37.1 µM
TGI [3]: 31.7 µM
TGI [4]: 36.1 µM
TGI [5]: 32.4 µM
TGI [6]: 59.8 µM
TGI [7]: 94 µM

CSc1nc2c(c(=O)[nH]1)N=C(c1ccccc1)CC(c1ccccc1)N2 (stereo not drawn)
TGI [1]: > 100 µM
TGI [2]: > 100 µM
TGI [3]: > 100 µM
TGI [4]: > 100 µM
TGI [5]: > 100 µM
TGI [6]: 59.6 µM
TGI [7]: > 100 µM

CCOC(=O)C(Cl)(NC(=O)OCc1ccccc1)C(F)(F)F (stereo not drawn)
TGI [1]: > 100 µM
TGI [2]: > 100 µM
TGI [3]: > 100 µM
TGI [4]: > 100 µM
TGI [5]: > 100 µM
TGI [6]: > 100 µM
TGI [7]: > 100 µM
